Our source for the IC50 and Hill slope values is publication PMC8808171, “Nonselective TRPC channel inhibition and suppression of aminoglycoside-induced premature termination codon readthrough by the small molecule AC1903” (The Journal of Biological Chemistry, 2022).

One assay deals with T1, TRPC3:C3 (Homo sapiens, UniProt Q13507).
T1 construct: expressed in transfected cells
The experiment in a line: [Ca2+]i recordings (Fura-2), TRPC3:C3 in HEK T-REx cells. It counts as cell-based. On the procedure:
Based on the findings described above, we wondered whether AC1903—which is typically used as a TRPC5 inhibitor at concentrations of 30–100 μM in cellular assays ([29], [56])—might have limited selectivity for TRPC5 channels and whether its effect on intracellular G418 levels and PTC readthrough might be the consequence of inhibition of other or multiple targets. All well-characterized TRPC channel inhibitors reported to date modulate multiple TRP(C) channels ([34], [35], [36]). […] Because limited data for the selectivity of AC1903 are available in the public domain, we decided to profile AC1903 against a selection of calcium-permeable cation channels by intracellular calcium ([Ca^2+]i) recordings using well-characterized cell lines and TRP channel activators ([46], [57], [58]), and the Ca^2+ indicator Fura-2. In these assays, cells (HEK 293, HEK T-REx, or CHO) overexpressing the relevant ion channel protein and loaded with Fura-2 AM (a cell-permeable precursor of Fura-2) were preincubated with various concentrations of AC1903 or vehicle (DMSO) for 30 min. Then, changes in ratiometric fluorescence (from background) were recorded upon addition of the respective ion channel activator. […]

In another assay the test system is WT HEK 293 cells. Put plainly: Carbachol-mediated [Ca2+]i response in WT HEK 293 cells. The following applies: carbachol (100 μM), n/N = 1/6. It is filed as cell-based. How it is done:
To test the effect of AC1903 on TRPC4 channels, we initially attempted to use carbachol to activate TRPC4:C4 channels, in line with patch-clamp experiments reported by Zhou et al. ([29]). […] Therefore, we used the selective TRPC1/4/5 activator EA and the physiological TRPC4/5 activator S1P instead.
[Ca^2+]i recordings were carried out using the ratiometric Ca^2+ dye Fura-2. 24 h prior to experiments, cells were plated either onto black, clear bottom poly-D-lysine-coated 96-well plates (HEK cells) or clear 96-well plates (A498 cells, CHO cells) at 50,000 cells per well (HEK cells) or 20,000 cells per well (A498 cells, CHO cells). For tetracycline-inducible HEK T-REx cells, protein expression was induced with tetracycline (TRPC channels: 1 μg ml^−1; hPiezo1: 100 ng ml^−1) at this point. To load cells with the Fura-2 dye, media was removed and cells were incubated with standard bath solution (SBS) containing 2 μM Fura-2 acetoxymethyl ester (Fura-2 AM; Thermo Fisher Scientific) and 0.01% pluronic acid for 1 h at 37 °C. SBS contained (in mM): NaCl 130, KCl 5, glucose 8, HEPES 10, MgCl2 1.2 and CaCl2 1.5. After this incubation, cells were washed twice with fresh SBS. […]
Inhibition of G418-induced premature stop codon readthrough
Figure S7. […] Responses were calculated at 70-80 s compared to [Ca2+]i at baseline (0-55 s). […]

T1 sequence (Q13507 whole entry): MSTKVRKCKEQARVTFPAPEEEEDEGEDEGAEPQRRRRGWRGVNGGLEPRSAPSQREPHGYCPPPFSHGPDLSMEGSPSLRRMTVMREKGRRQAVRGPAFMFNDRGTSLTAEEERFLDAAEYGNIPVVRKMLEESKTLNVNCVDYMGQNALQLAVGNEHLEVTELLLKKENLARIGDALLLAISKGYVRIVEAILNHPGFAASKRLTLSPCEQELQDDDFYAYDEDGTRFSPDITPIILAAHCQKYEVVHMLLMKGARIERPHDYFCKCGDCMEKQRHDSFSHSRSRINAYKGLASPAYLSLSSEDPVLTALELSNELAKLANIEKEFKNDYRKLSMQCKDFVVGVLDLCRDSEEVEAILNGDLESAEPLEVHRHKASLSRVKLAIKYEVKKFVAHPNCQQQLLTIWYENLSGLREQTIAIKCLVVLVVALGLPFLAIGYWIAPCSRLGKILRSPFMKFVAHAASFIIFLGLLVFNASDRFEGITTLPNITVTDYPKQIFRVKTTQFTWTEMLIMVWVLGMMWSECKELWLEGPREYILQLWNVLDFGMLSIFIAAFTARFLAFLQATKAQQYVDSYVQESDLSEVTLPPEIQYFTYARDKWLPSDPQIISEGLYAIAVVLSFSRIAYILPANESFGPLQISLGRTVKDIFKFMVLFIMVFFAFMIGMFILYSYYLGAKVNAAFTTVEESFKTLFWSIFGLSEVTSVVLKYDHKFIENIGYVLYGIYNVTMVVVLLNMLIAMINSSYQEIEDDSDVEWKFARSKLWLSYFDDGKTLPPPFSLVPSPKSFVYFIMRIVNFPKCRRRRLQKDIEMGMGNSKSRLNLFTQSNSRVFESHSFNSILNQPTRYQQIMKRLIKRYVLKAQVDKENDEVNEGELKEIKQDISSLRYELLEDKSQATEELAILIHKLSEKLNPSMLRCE

What is called IC50 is the concentration that inhibits the measured activity by half. The Hill slope is a measure of the steepness of the concentration-response curve. In the case of `c1ccc(Cn2c(NCc3ccco3)nc3ccccc32)cc1` [AC1903], the IC50 against TRPC3:C3 (HEK T-REx, activator OAG (100 μM)) amounted to 5.2 µM; in the assay with WT HEK 293 cells it was 20 µM. On TRPC3:C3 (activator OAG), the Hill slope is listed as -1.4.
